Assay results reported in patent US5385884A, “Lipopeptide derivatives” (Merck & Co. Inc., priority 1991, dated 1995).

Legend:
[1] = system: Pneumocystis carinii; test: Pneumocystis carinii pneumonia in immunosuppressed rats; type: in vivo, Sprague-Dawley rats; details: intraperitoneally (I.P.) twice daily for four days
Experimental: In a representative study, the effectiveness of Compound A-la was determined. Sprague-Dawley rats (weighing approximately 250 grams) were immunosuppressed with dexasone in the drinking water (2.0 mg/L) and maintained on a low protein diet for five weeks to induce the development of pneumocystis pneumonia from a latent infection. […] Six rats (weighing approximately 150 grams) were injected twice daily for four days intravenously (I.V.) via the tail vein with Compound A-la in 0.25 ml of vehicle (distilled water). A vehicle control was also carried out. All animals continued to receive dexasone in the drinking water and low protein diet during the treatment period. At the completion of the treatment, all animals were sacrificed, the lungs were removed and processed, and the extent of disease determined by microscopic analysis of stained slides.
In a similar experiment, except that the rats were injected intraperitoneally (I.P.) twice daily for four days, the animals were sacrificed, the lungs removed and processed, and the extent of disease determined by microscopic analysis of stained slides.

[2] = system: C. albicans; test: Minimum fungicidal concentration, microbroth dilution assay in YNBD; type: cell-based
Experimental: The minimum inhibitory concentrations (MICs) were recorded as the lowest concentrations of drug showing no visible growth.
After recording the MIC, the plates were shaken to resuspend the cells. […] The MFC is defined as the lowest concentration of drug showing no growth or less than 4 colonies per spot.

## 1-[4-hydroxy-N2-(10,12-dimethyl-1-oxotetradecyl)-ornithine]-4-[3-hydroxy-4' -O-phosphoryl-homotyrosine]-5-[3-hydroxyglutamine]-6-[3-hydroxyproline]echi nocandin B disodium salt [Compound A-2a]
[1]
  ED90 for eliminating P. carinii cysts: approximately 0.6 mg/kg
[2]; C. albicans MY 1028
  Minimum Fungicidal Concentration: 2 µg/mL
[2]; C. albicans MY 1208
  Minimum Fungicidal Concentration: 2 µg/mL
